Results on 4 compounds are retold here after patent US7767240B2, “Microbiological control in poultry processing” (priority 2001, dated 2010).

Values joined by “and” are separate entries in the source; they are usually repeats but may differ in a detail not shown here. Identical values can stand only once.

What all share (type): cell-based
Assay [1] concerns Pseudomonas aeruginosa (ATCC 15442) biofilm. The assay can be described thus: MBEC biofilm eradication test (Calgary biofilm device). The settings on record: one-hour biocide contact time; for MBEC (minimum biofilm eradication concentration): individual determinations. From the text: Table 45 summarizes test results performed at MBEC Biofilm Technologies, Inc., Calgary, Canada on the effectiveness of various biocides on biofilm removal. The test procedure, developed at the University of Calgary, utilizes a device which allows the growth of 96 identical biofilms under carefully controlled conditions. The device consists of a two-part vessel comprised of an upper plate containing 96 pegs that seals against a bottom plate. The bottom plate can consist of either a trough (for biofilm growth) or a standard 96-well plate (for biocide challenge). The biofilms develop on the 96 pegs. The device has been used as a general method for evaluating the efficacy of antibiotics and biocides towards biofilms. See in this connection H. Ceri, et al., “The MBEC Test: A New In Vitro Assay Allowing Rapid Screening for Antibiotic Sensitivity of Biofilm”, Proceedings of the ASM, 1998, 89, 525; Ceri, et al., “Antifungal and Biocide Susceptibility testing of Candida Biofilms using the MBEC Device”, Proceedings of the Interscience Conference on Antimicrobial Agents and Chemotherapy, 1998, 38, 495; and H. Ceri, et al., “The Calgary Biofilm Device: A New Technology for the Rapid Determination of Antibiotic Susceptibility of Bacterial Biofilms”, Journal of Clinical Microbiology, 1999, 37, 1771-1776.
Six biocide systems were evaluated using the above test procedure and test equipment. Five of these systems were oxidizing biocides, viz., chlorine (from NaOCl), halogen (from NaOCl+NaBr), halogen (from BCDMH), bromine (from DBDMH), and chlorine (from trichloroisocyanuric acid), all expressed as bromine as Br2 in mg/L, so that all test results were placed on the same basis. The sixth biocide was glutaraldehyde, a non-oxidizing biocide.
These biocide systems were used to challenge biofilms of Pseudomonas aeruginosa (ATCC 15442). This is a Gram (−) bacterium which is ubiquitous in microbiological slimes found in many water systems. See in this connection J. W. Costerton and H. Anwar, “Pseudomonas aeruginosa: The Microbe and Pathogen”, in Pseudomonas aeruginosa Infections and Treatment, A. L. Baltch and R. P. Smith editors, Marcel Dekker publishers, New York, 1994. In the field of poultry processing, S. Notermans, J. Dormans, and G. C. Mead, Biofouling, 1991, Vol. 5, pages 21-36, report observation of biofilms in poultry slaughter houses by use of scanning electron microscopy.
In Table 45 the MBEC (minimum biofilm eradication concentration) results presented are for the one-hour biocide contact time used in the test. The values given for the halogen containing biocides are expressed in terms of mg/L of bromine as Br2. The data on the glutaraldehyde is in terms of mg/L as active ingredient. […] In fact, only slightly more than one-half as much bromine from DBDMH was required to remove the biofilm as compared to the total halogen, expressed as Br2, that was required from BCDMH.

The subject of assay [2] is Escherichia coli field strain. As to the kind of experiment: Chill water bacteria count (Example 1). As to conditions: bacteria count per mL of treatment water. The text has this:
(§1) The effect of these treatments on the residual chill tank water was also investigated. Carcasses were first immersed in a warm bath containing 10^4 E coli per mL of liquid. Carcasses were then immersed in chill tanks containing normal organic fluids (blood, fat, skin, and meat particles) and containing one of the respective microbiocidal compositions under test. Total bacteria count of whole bird (both inside and outside) was used to determine efficacy of various microbiocidal compositions. […] Albemarle Corporation). The trial events and experimental design used were as follows: • a) For all treatments a total of 190 birds were processed in a normal fashion. […] This was best done by grasping the broiler carcass with one hand and the closed top of the bag with the other then rocking with a reciprocal motion in a 18-24 inch arc, assuring that all carcass surfaces (interior and exterior) were rinsed. • h) The rinse solutions were then transferred from each stomacher bag into individual sample bottles, taking care to ensure that the information on the date of collection, time of collection, and treatment group matched that of the sample. Each bottle was sealed with parafilm and stored in a refrigerator. • i) Dilution of the fluids was conducted such that a 25-250 count was present on the MacConkey plate. […] Poultry carcass microbial contamination measurement was achieved by the complete washing of the entire carcass surface (inside and outside) using suitable sterile stripping solution followed by collection and plating of the stripping solution for bacterial enumeration.

The test system of assay [3] is Escherichia coli field strain. As to the kind of experiment: Carcass total bacteria count after 1.5-hour chill tank immersion (Example 1). As to conditions: average of 10 birds; for Mean Bacteria Reduction (carcass): 1.5 h chill tank.
Excerpt: as §1

[4] abbreviates: 100 ppm Cl2 equivalent (Aquatize: 100 ppm sodium chlorite).
Setting [5] is: 150 ppm Cl2 equivalent (Aquatize: 150 ppm sodium chlorite).
[6] abbreviates: 50 ppm Cl2 equivalent (Aquatize: 50 ppm sodium chlorite).

Consider `O=CCCCC=O` [Glutaraldehyde, glutaraldehyde], for which, in assay [1], the “MBEC, avg.” value is on record as 50 mg/L as active ingredient and the “MBEC (minimum biofilm eradication concentration)” value is 50, 50 mg/L as active ingredient.

For the compound `[Na+].[O-]Cl` [NaOCl], in assay [1], the “MBEC, avg.” value is 3.8 mg/L of bromine as Br2; the “MBEC (minimum biofilm eradication concentration)” value is 5.0 mg/L of bromine as Br2 and 2.5 mg/L of bromine as Br2.

Regarding `[Br-].[Na+]` [Sodium bromide, sodium bromide], the “Chill Water Bacteria Count (Mean Bacteria Reduction)” value in assay [2] (50 ppm Cl2 equivalent (Aquatize: 50 ppm sodium chlorite), negative control 5.11 × 10^3) is on record as 4.67 × 10^3 per mL; in assay [2] (setting [4]), 3.49 × 10^3 per mL; in assay [2] (setting [5]) it was 2.23 × 10^3 per mL. For the same compound, the “Mean Bacteria Reduction (carcass)” value is listed as 92 in assay [3] (50 ppm Cl2 equivalent (Aquatize: 50 ppm sodium chlorite), control carcass 2.67 × 10^5 total count); 6.54 × 10^2 in assay [3] (setting [4]); 1.73 × 10^3 in assay [3] (setting [5]). In addition, the “Mean Bacteria Reduction Count (carcass)” value in assay [3] (setting [6]) is listed as 92; in assay [3] (setting [4]), 654; in assay [3] (setting [5]), 1,730. Moreover, the “Percent Bacteria Reduction From Control (carcass)” value is listed as 0.034% in assay [3] (setting [6]), 0.245% in assay [3] (setting [4]) and 0.648% in assay [3] (setting [5]).

Take `O=c1n(Cl)c(=O)n(Cl)c(=O)n1Cl` [Trichloroisocyanuric acid, trichloroisocyanuric acid]: in assay [1], the “MBEC, avg.” value is given as 2.0 mg/L of bromine as Br2; the “MBEC (minimum biofilm eradication concentration)” value is 2.6 mg/L of bromine as Br2 and 1.3 mg/L of bromine as Br2.
